Laboratory results reported in patent US6528528B2 (Warner-Lambert Company, priority 1997, dated 2003).

biological target: T1, rabbit reticulocyte 15-LO (Oryctolagus cuniculus, UniProt P12530); assay: Rabbit Reticulocyte 15-LO Assay (h15LO); type: biochemical; conditions: 0.25 h; Table 2; @ 10 μM; read-out: h15LO % @ 10 μM
T1 construct: Fifteen-lipoxygenase was obtained from phenylhydrazine-treated rabbits and purified per the method of Rapoport; from tissue; host or cells: reticulocytes of phenylhydrazine-treated rabbits
T1 sequence (P12530 1-663): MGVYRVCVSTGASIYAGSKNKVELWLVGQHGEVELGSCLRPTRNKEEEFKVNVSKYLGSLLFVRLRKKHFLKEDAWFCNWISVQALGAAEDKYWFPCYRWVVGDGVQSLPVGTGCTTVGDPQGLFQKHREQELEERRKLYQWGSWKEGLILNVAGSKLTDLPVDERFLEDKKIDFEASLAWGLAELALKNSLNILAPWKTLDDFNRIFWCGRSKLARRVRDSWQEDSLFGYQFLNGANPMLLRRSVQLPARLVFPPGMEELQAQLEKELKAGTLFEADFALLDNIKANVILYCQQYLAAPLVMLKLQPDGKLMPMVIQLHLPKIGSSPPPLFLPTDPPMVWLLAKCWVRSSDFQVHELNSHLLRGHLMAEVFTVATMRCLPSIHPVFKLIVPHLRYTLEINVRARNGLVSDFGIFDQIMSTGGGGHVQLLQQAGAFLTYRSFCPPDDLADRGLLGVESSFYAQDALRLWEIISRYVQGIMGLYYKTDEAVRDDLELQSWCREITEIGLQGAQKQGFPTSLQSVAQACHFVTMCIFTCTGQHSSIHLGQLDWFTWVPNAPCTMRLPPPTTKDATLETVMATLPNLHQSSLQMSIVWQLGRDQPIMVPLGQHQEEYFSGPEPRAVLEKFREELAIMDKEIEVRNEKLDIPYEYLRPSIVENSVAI
Description: Rabbit Reticulocyte 15-LO Assay (h15LO)
The present 15-LO assay takes advantage of the ability of 15-LO to oxidize the fatty acid linoleic acid to the hydroperoxy fatty acid 13-(S)HPODE, resulting in the formation of a conjugated diene. The 15-LO inhibitors are incubated with 15-LO enzyme in the presence of linoleic acid substrate. The initial reaction is compared to an uninhibited (maximal) reaction to yield % inhibition. […] This prevents artificial nonenzyme lipid peroxidation and product breakdown in the sample. 13-HPODE is quantitated by comparing peak areas of individual samples with those from a standard curve generated using authentic 13-HODE. This assay is performed using 2U of rabbit reticulocyte 15-LO in the presence of 174 μM linoleic acid. The reaction is incubated for 15 minutes at 4° C. The total reaction volume is 100 μL in PBS containing 0.2% Na cholate.
Fifteen-lipoxygenase was obtained from phenylhydrazine-treated rabbits and purified per the method of Rapoport (Rapoport S. M., Schewe T., Wiesner R., et al. The lipoxygenase of reticulocytes. Purification, characterization, and biological dynamics of the lipoxygenase; its identity with the respiratory inhibitors of the reticulocyte. European Journal of Biochemistry, 1979;96:545-561). The following chemicals were purchased and used as received: linoleic acid (NUJCheck Prep), 13-HPODE (Biomol Research Labs), sodium cholate (Sigma), trimethyl phosphite (Fluka Chemicals).

| inhibition at 10 µM | SMILES |
| --- | --- |
| 66% | O=C(Nc1ccccc1)c1cc(NC(=S)Nc2cc(Cl)cc(Cl)c2)ccc1F [Example 101, 5-[3-(3,5-Dichlorophenyl)-thioureido]-2-fluoro-N-phenyl-benzamide] |

same assay, conditions: Table 1; 2U rabbit reticulocyte 15-LO, 174 μM linoleic acid, 15 minutes at 4° C.

| IC50 | SMILES |
| --- | --- |
| 2130 nM | COc1ccc(NC(=O)c2ccccc2)cc1N [Example 21, N-(3-Amino-4-methoxyphenyl)-benzamide] |

same assay, conditions: Table 2; 2U rabbit reticulocyte 15-LO, 174 μM linoleic acid, 15 minutes at 4° C.

| SMILES | IC50 |
| --- | --- |
| COc1ccc(C(=O)Nc2ccc(Cl)c(Cl)c2)cc1Nc1cccc(C(F)(F)F)c1 [Example 47, 4-Methoxy-3-(3-trifluoromethyl-phenylamino)-N-(3,4-dichlorophenyl)-benzamide] | 100 nM |
| COc1ccc(C(=O)Nc2ccc(F)c(F)c2)cc1NS(=O)(=O)c1cc(Cl)cc(Cl)c1 [Example 116, 3-(3,5-Dichloro-benzenesulfonylamino)-4-methoxy-N-(3,4-difluorophenyl)-benzamide] | 20 nM |
| CCOC(=O)c1cccc(NC(=O)c2ccc(OC)c(N)c2)c1 [Example 148, 3-(3-Amino-4-methoxy-benzoylamino)-benzoic Acid Ethyl Ester] | 613 nM |
| COc1ccc(NC(=O)c2ccc(F)c(F)c2)cc1N [Example 150, 3,4-Difluoro-N-(3-amino-4-methoxy-phenyl)-benzamide] | 205 nM |
| COc1ccc(NC(=O)c2ccc(Cl)c(Cl)c2)cc1Nc1cccc(C(F)(F)F)c1 [Example 160, 3,4-Dichloro-N-[4-methoxy-3-(3-trifluoromethyl-phenylamino)-phenyl]-benzamide] | 119 nM |
| COc1ccc(C(=O)Nc2ccc(F)c(F)c2)cc1NC(=S)Nc1cccc(C(=O)O)c1 [Example 162, 3-{3-[5-(3,4-Difluoro-phenylcarbamoyl)-2-methoxy-phenyl]-thioureido}-benzoic Acid] | 55 nM |
| COc1ccc(NC(=O)c2ccc(F)c(F)c2)cc1NC(=S)Nc1ccc(C(=O)O)cc1 [Example 168, 4-{3-[5-(3,4-Difluoro-benzoylamino)-2-methoxy-phenyl]-thioureido}-benzoic Acid acid] | 109 nM |
| COc1ccc(NC(=O)c2ccc(F)c(F)c2)cc1NC(=S)Nc1cccc(C(=O)O)c1 [Example 169, 3-{3-[5-(3,4-Difluoro-benzoylamino)-2-methoxy-phenyl]-thioureido}-benzoic Acid] | 246 nM |
| COc1ccc(NC(=O)Nc2ccc(Cl)c(Cl)c2)cc1NC(=S)Nc1cc(Cl)cc(Cl)c1 [Example 171, 1-(3,4-Dichloro-phenyl)-3-{3-[3-(3,5-dichloro-phenyl)-thioureido]-4-methoxy-phenyl}-urea] | 275 nM |

Second part, the compound after the results:

| IC50 | SMILES |
| --- | --- |
| 1600 nM | O=C(Nc1ccccc1)c1cccc(Nc2cc(Cl)cc(Cl)c2)c1 [Example 26, 3-(3,5-Dichloro-phenylamino)-N-phenyl-benzamide] |
| 10 nM | COc1ccc(C(=O)Nc2ccccc2)cc1Nc1cccc(C(F)(F)F)c1 [Example 30, 3-(3-Trifluoromethyl-phenylamino)-4-methoxy-N-phenyl-benzamide] |
| > 3000 nM | Cc1ccc(C(=O)Nc2ccccc2)cc1Nc1ccccc1 [Example 38, 3-Phenylamino-4-methyl-N-phenyl-benzamide] |
| 16 nM | COc1ccc(C(=O)Nc2ccccc2)cc1NC(=S)Nc1ccc(Cl)c(C(F)(F)F)c1 [Example 73, 3-[3-(4-Chloro-3-trifluoromethylphenyl)-thioureido]-4-methoxy-N-phenyl-benzamide] |
| 39 nM | COc1ccc(C(=O)Nc2ccccc2)cc1NS(=O)(=O)c1ccc2ccccc2c1 [Example 140, 3-(Naphthalene-2-sulfonylamino)-4-methoxy-N-phenyl-benzamide] |
| 180 nM | O=C(Nc1ccccc1)c1ccc(O)c(Nc2ccccc2)c1 [Example 145, 4-Hydroxy-3-phenylamino-N-phenyl-benzamide] |
| 54 nM | COc1ccc(C(=O)Nc2ccccc2)cc1Nc1ccc(F)cc1 [Example 153, 3-(4-Fluoro-phenylamino)-4-methoxy-N-phenyl-benzamide] |
| 22 nM | COC(=O)c1cccc(NC(=S)Nc2cc(C(=O)Nc3ccccc3)ccc2OC)c1 [Example 161, 3-[3-(2-Methoxy-5-phenylcarbamoyl-phenyl)-thioureido]-benzoic Acid Methyl Ester] |

same assay, conditions: Table 2; concentration not given

| SMILES | h15LO, value given as bare % |
| --- | --- |
| Nc1cc(NC(=O)c2ccc(F)c(F)c2)ccc1F [Example 151, 3,4-Difluoro-N-(3-amino-4-fluoro-phenyl)-benzamide] | 82.66% |
| COc1ccc(NC(=O)Nc2ccc(Cl)c(Cl)c2)cc1N [Example 152, 1-(3-Amino-4-methoxy-phenyl)-3-(3,4-dichloro-phenyl)-urea] | 57.49% |
| COc1ccc(C(=O)Nc2ccc(F)c(F)c2)cc1NC(=S)Nc1ccc(S(=O)(=O)[O-])cc1.[Na+] [Example 165, 4-{3-[5-(3,4-Difluoro-phenylcarbamoyl)-2-methoxy-phenyl]-thioureido}-benzenesulfonic Acid, Sodium Salt] | 98.51% |
| COc1ccc(C(=O)Nc2ccc(F)cc2)cc1NC(=S)Nc1ccc(C(=O)O)cc1 [Example 166, 4-{3-[5-(4-Fluoro-phenylcarbamoyl)-2-methoxy-phenyl]-thioureido}-benzoic Acid] | 98.11% |
| O=C(Nc1ccc(F)c(NC(=S)Nc2cc(Cl)cc(Cl)c2)c1)c1ccc(F)c(F)c1 [Example 170, N-{3-[3-(3,5-Dichloro-phenyl)-thioureido]-4-fluoro-phenyl}-3,4-difluoro-benzamide] | 99.53% |
| COC(=O)c1cccc(NC(=S)Nc2cc(NC(=O)Nc3ccc(Cl)c(Cl)c3)ccc2OC)c1 [Example 172, 3-(3-{5-[3-(3,4-Dichloro-phenyl)-ureido]-2-methoxy-phenyl}-thioureido)-benzoic Acid Methyl Ester] | 89.03% |
| COc1ccc(NC(=O)Nc2ccc(Cl)c(Cl)c2)cc1NC(=S)Nc1cccc(C(=O)O)c1 [Example 173, 3-(3-{5-[3-(3,4-Dichloro-phenyl}-ureido]-2-methoxy-phenyl)-thioureido)-benzoic Acid] | 55% |

Second part, the compound after the results:

| h15LO, value given as bare % | SMILES |
| --- | --- |
| 37.05% | Nc1cc(C(=O)Nc2ccccc2)ccc1OC(F)(F)F [Example 147, 3-Amino-4-trifluoromethoxy-N-phenyl-benzamide] |
| 97.66% | COc1ccc(C(=O)Nc2ccc(F)cc2)cc1Nc1cc(Cl)cc(Cl)c1 [Example 154] |
| 94.44% | COc1ccc(C(=O)Nc2ccc(F)cc2)cc1Nc1ccc(F)cc1 [Example 155, 3-(4-Fluoro-phenylamino)-4-methoxy-N-(4-fluoro-phenyl)-benzamide] |
| 90.33% | COC(=O)c1cccc(NC(=O)c2ccc(OC)c(Nc3cccc(C(F)(F)F)c3)c2)c1 [Example 156, 3-[4-Methoxy-3-(3-trifluoromethyl-phenylamino)-benzoylamino]-benzoic Acid Methyl Ester] |
| 78.83% | CCOC(=O)c1cccc(NC(=O)c2ccc(OC)c(Nc3cccc(C(F)(F)F)c3)c2)c1 [Example 157, 3-[4-Methoxy-3-(3-trifluoromethyl-phenylamino)-benzoylamino]-benzoic Acid Ethyl Ester] |
| 48.28% | O=C(Nc1ccccc1)c1ccc(OC(F)(F)F)c(Nc2cccc(C(F)(F)F)c2)c1 [Example 158, 4-Trifluoromethoxy-3-(3-trifluoromethyl-phenylamino)-N-phenyl-benzamide] |
| 44.58% | O=C(Nc1ccc(F)cc1)c1ccc(OC(F)(F)F)c(Nc2cccc(C(F)(F)F)c2)c1 [Example 159, 4-Trifluoromethoxy-3-(3-trifluoromethyl-phenylamino)-N-(4-fluoro-phenyl)-benzamide] |
| 96.22% | COc1ccc(C(=O)Nc2ccc(F)cc2)cc1NC(=S)Nc1cccc(C(=O)O)c1 [Example 167, 3-{3-[5-(4-Fluoro-phenylcarbamoyl)-2-methoxy-phenyl]-thioureido}-benzoic Acid] |
